This passage reports Kd results from patent US20080090756A1, “Somatostatin agonists” (The Administrators of the Tulane Educational Fund, priority 2001, published 2008).

One test has as its target T1, hSSTR-4 (Homo sapiens, UniProt P31391).
T1 construct: each containing the entire coding region of the full-length receptors; expressed in transfected cells
As to the kind of experiment: Radioligand binding assay, cloned human somatostatin receptor type 4. The following applies: CHO-K1 cell membranes, displacement of [125I]Tyr11-SRIF; mean ± SEM, single values = one experiment; read-out: Kd ± SEM hsst4. From the text:
(§1) Functional Expression of the Cloned Human Somatostatin Receptors. The genomic clones containing the human somatostatin receptors (hSSTR-1 to hSSTR-5) (Yamada, Y., et al. al., Proc. Natl. Acad. Sci. USA. 1992, 89, 251-255; Yasuda, K., et al., J. Biol. Chem. 1992, 267, 20422-20428; Yamada, Y., et al., Mol. Pharmacol. 1992, 42, 2136-2142; Rohrer, L., et al., Proc. Natl. Acad. Sci. USA. 1993, 90, 4196-4200.) were kindly provided by Dr. Graeme I. Bell of the University of Chicago. The hSSTR-1, hSSTR-2, hSSTR-3, hSSTR-4 and hSSTR-5 cDNAs were isolated as a 1.5-kb PstI-XmnI fragment, 1.7-kb BamHI-HindIII fragment, 2.0-kb NcoI-HindIII fragment, 1.4-kb NheI-NdeI fragment, and a 1.2-kb HindIII-XbaI fragment, respectively, each containing the entire coding region of the full-length receptors. These fragments were independently subcloned into the corresponding restriction endonuclease sites in the mammalian expression vector pCMV5, downstream from the human cytomegalovirus (CMV) promoter, to produce the expression plasmids pCMV5/hSSTR-1, pCMV5/hSSTR-2, pCMV5/hSSTR-3, pCMV5/hSSTR-4 and pCMV5/hSSTR-5. For transfection into CHO-K1 cells, a plasmid, pRSV-neo (American Type Culture Collection, Rockville, Md.), carrying the neomycin mammalian cell selectable marker was added.
(§2) Receptor Expression and Transfection. Transfections were performed by the calcium phosphate method. CHO-K1 cells were maintained in α-minimum essential medium (α-MEM; Gibco) supplemented with 10% fetal calf serum and transfected with each of the expression plasmids using calcium phosphate precipitation. Clones that had inherited the expression plasmid were selected in α-MEM supplemented with 500 μg mL^−1 of geneticin (G418; Gibco). Independent CHO-K1 clones were picked by glass-ring cloning and expanded in culture in the selective media. Membranes were prepared from the isolated clones and hSSTR expression was initially assessed for binding with [^125I]Tyr^11-SRIF and [^125I]MK-678 (for SSTR-2).
(§3) Radioligand Binding Assays. Cell membranes of the 5 cells types were obtained from homogenates (Polytron setting 6, 15 sec) of the corresponding CHO-K1 cells, in ice-cold Tris-HCl (50 mM) and centrifuged (39000 g, 10 min×2), with an intermediate resuspension in fresh buffer. The final pellets were resuspended in Tris-HCl (10 mM) for assay. Aliquots of the membranes were incubated (30 min at 37° C.) with 0.05 nM [^125I]Tyr^11-SRIF (types 1, 3, 4, 5) or [^125I]MK-678 (type 2) in […] (pH 7.4) containing BSA (10 mg mL^−1); MgCl2 (5 mM), Trasylol (200 kIU mL^−1), bacitracin (0.02 mg mL^−1), and phenylmethanesulfonyl fluoride (0.02 mg mL^−1). The final assay volume was 0.3 mL and incubations were terminated by rapid filtration through GF/C filters pre-soaked in 0.3% poly(ethylenimine) using a Brandel rapid filtration module. Each tube and filter was then washed with aliquots of cold buffer (3×5 mL).
(§4) Specific binding is defined as the total radioligand bound minus that bound in the presence of 1.0 μM SRIF. The following total radioligand binding and non-specific binding (nsb) values were typically obtained with these assay systems: hSSTR-1, 7000 cpm total versus 3500 cpm nsb; hSSTR-2, 9000 cpm total versus 1000 cpm nsb; hSSTR-3, 8000 cpm total versus 1000 cpm nsb; hSSTR-4, 6000 cpm total versus 3500 cpm nsb; and hSSTR-5, 7500 cpm total versus 3500 cpm nsb. The binding affinities are expressed as Ki values ±SEM (nM) for each of the five receptor subtypes. Ki values derived for representative compounds of the instant invention are detailed in Table 2.
(§5) The binding affinities (Kd, nM) of all SRIF analogues were determined using their concentration-dependent displacement of ^125I-radiolabeled peptide ligands from membranes isolated from CHO cells transfected with the corresponding human somatostatin receptor.

The next test deals with T2, hSSTR-1 (Homo sapiens, UniProt P30872).
T2 construct: each containing the entire coding region of the full-length receptors; expressed in transfected cells
As to the kind of experiment: Radioligand binding assay, cloned human somatostatin receptor type 1. As to conditions: CHO-K1 cell membranes, displacement of [125I]Tyr11-SRIF; mean ± SEM, single values = one experiment; read-out: Kd ± SEM hsst1.
Text: as §1, §2, §3, §4, §5

In another test the target is T3, hSSTR-3 (Homo sapiens, UniProt P32745).
T3 construct: each containing the entire coding region of the full-length receptors; expressed in transfected cells
As to the kind of experiment: Radioligand binding assay, cloned human somatostatin receptor type 3. The following applies: CHO-K1 cell membranes, displacement of [125I]Tyr11-SRIF; mean ± SEM, single values = one experiment; read-out: Kd ± SEM hsst3.
Text: as §1, §2, §3, §4, §5

For a further test, the target named is T4, hSSTR-2 (Homo sapiens, UniProt P30874).
T4 construct: each containing the entire coding region of the full-length receptors; expressed in transfected cells
As to the kind of experiment: Radioligand binding assay, cloned human somatostatin receptor type 2. The following applies: CHO-K1 cell membranes, displacement of [125I]MK-678; mean ± SEM, single values = one experiment; read-out: Kd ± SEM hsst2.
Text: as §1, §2, §3, §4, §5

A further test concerns the target T5, hSSTR-5 (Homo sapiens, UniProt P35346).
T5 construct: each containing the entire coding region of the full-length receptors; expressed in transfected cells
As to the kind of experiment: Radioligand binding assay, cloned human somatostatin receptor type 5. The following applies: CHO-K1 cell membranes, displacement of [125I]Tyr11-SRIF; mean ± SEM, single values = one experiment; read-out: Kd ± SEM hsst5.
Text: as §1, §2, §3, §4, §5

Molecules are shown by their SMILES. Bridge positions count the residues as written; N and C are the ends. Square brackets hold non-standard residues; d marks the D form. Peptide text beside a SMILES is read from it. dNMeW = CN[C@H](Cc1c[nH]c2ccccc12)C(=O)O; NMeY = CN[C@@H](Cc1ccc(O)cc1)C(=O)O; NMeF = CN[C@@H](Cc1ccccc1)C(=O)O; NMeT = CN[C@H](C(=O)O)[C@@H](C)O; NMeK = CN[C@@H](CCCCN)C(=O)O; NMeC = CN[C@@H](CS)C(=O)O

T3 sequence (P32745 whole entry): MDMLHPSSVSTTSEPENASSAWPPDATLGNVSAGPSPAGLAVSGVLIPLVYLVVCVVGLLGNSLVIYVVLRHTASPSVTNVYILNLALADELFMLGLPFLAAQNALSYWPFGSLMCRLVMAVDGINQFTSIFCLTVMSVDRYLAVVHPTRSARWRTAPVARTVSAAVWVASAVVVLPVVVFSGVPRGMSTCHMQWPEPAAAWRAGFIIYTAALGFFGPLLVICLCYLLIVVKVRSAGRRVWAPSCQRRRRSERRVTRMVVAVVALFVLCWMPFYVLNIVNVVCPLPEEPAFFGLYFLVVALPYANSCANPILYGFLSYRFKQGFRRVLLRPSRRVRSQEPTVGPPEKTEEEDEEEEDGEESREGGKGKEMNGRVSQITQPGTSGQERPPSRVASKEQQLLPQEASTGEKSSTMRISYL
T4 sequence (P30874 whole entry): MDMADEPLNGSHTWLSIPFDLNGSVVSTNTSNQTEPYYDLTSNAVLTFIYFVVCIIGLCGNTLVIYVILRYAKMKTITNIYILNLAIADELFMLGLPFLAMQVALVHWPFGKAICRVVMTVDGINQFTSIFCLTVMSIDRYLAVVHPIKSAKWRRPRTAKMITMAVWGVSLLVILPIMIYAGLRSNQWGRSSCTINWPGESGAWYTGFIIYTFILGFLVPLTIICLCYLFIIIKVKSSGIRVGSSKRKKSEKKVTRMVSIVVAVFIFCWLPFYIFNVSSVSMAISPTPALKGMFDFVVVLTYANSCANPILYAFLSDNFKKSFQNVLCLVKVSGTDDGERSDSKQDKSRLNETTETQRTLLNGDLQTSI
T2 sequence (P30872 whole entry): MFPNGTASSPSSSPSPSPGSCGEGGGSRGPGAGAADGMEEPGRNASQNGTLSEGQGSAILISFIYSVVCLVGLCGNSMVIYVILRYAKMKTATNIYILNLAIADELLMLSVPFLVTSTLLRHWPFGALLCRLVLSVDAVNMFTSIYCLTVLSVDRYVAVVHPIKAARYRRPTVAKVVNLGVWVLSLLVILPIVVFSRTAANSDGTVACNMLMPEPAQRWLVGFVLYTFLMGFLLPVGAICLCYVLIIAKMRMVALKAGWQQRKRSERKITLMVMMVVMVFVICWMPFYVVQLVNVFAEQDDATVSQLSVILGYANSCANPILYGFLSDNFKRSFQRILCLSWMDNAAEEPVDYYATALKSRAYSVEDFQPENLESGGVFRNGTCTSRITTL
T1 sequence (P31391 whole entry): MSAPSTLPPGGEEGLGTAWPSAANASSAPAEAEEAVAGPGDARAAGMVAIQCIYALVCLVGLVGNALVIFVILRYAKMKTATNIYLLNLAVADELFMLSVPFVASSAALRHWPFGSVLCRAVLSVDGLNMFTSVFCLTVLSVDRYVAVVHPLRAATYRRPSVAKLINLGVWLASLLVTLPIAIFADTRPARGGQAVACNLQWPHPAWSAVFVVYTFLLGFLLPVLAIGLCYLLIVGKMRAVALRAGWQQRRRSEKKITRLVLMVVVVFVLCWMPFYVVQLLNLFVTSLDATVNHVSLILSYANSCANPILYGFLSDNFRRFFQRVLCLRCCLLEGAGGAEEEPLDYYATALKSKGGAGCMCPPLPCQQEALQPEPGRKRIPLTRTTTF
T5 sequence (P35346 whole entry): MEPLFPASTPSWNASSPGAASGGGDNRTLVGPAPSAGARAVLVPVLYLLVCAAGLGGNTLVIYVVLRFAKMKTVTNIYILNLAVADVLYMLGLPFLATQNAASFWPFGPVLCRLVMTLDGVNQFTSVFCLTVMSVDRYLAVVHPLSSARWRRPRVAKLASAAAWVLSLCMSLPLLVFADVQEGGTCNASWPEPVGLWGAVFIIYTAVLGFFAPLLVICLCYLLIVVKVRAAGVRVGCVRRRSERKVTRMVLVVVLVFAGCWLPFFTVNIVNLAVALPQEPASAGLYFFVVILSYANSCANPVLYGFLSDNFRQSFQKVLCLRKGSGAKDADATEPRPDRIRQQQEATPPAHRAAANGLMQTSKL

Turning to `C[C@@H](O)[C@@H]1NC(=O)[C@H](CCCCN)NC(=O)[C@@H](Cc2c[nH]c3ccccc23)NC(=O)[C@H](Cc2ccccc2)NC(=O)[C@@H](NC(=O)[C@H](N)Cc2ccccc2)CSSC[C@@H](C(=O)N(C)[C@H](C(N)=O)[C@@H](C)O)NC1=O` [Example 8, DPhe-cyclo(Cys-Phe-DTrp-Lys-Thr-Cys)-NMeThr-NH2], the Kd on hSSTR-4 is 182 nM; at hSSTR-1, greater than 1000 nM; at hSSTR-3, 124 ± 11.7 nM; on hSSTR-2 it was 14.8 ± 1.53 nM.
For `C[C@@H](O)[C@H](NC(=O)[C@@H]1CSSC[C@H](NC(=O)[C@H](N)Cc2ccccc2)C(=O)N[C@@H](Cc2ccccc2)C(=O)N[C@H](Cc2c[nH]c3ccccc23)C(=O)N(C)[C@@H](CCCCN)C(=O)N[C@@H]([C@@H](C)O)C(=O)N1)C(N)=O` [Example 5, DPhe-cyclo(Cys-Phe-DTrp-NMeLys-Thr-Cys)-Thr-NH2], the Kd at hSSTR-4 was greater than 1000 nM; on hSSTR-2, 1.84 ± 0.21 nM.
`C[C@@H](O)[C@H](NC(=O)[C@@H]1CSSC[C@H](NC(=O)[C@@H](N)Cc2ccc(O)cc2)C(=O)N(C)[C@@H](Cc2ccccc2)C(=O)N[C@H](Cc2c[nH]c3ccccc23)C(=O)N[C@@H](CCCCN)C(=O)N[C@@H]([C@@H](C)O)C(=O)N1)C(N)=O` [Example 12, Tyr-cyclo(Cys-NMePhe-DTrp-Lys-Thr-Cys)-Thr-NH2] (H-YC[NMeF][dW]KTCT-NH2; disulfide 2-7; N-terminus assumed): the figures for the Kd on hSSTR-1 and at hSSTR-3 were 653 ± 245 nM and 94.2 ± 16.7 nM, respectively.
Take `C[C@@H](O)[C@H](NC(=O)[C@@H]1CSSC[C@H](NC(=O)[C@H](N)Cc2ccccc2)C(=O)N(C)[C@@H](Cc2ccccc2)C(=O)N[C@H](Cc2c[nH]c3ccccc23)C(=O)N[C@@H](CCCCN)C(=O)N[C@@H]([C@@H](C)O)C(=O)N1)C(N)=O` [Example 3, DPhe-cyclo(Cys-NMePhe-DTrp-Lys-Thr-Cys)-Thr-NH2]: the dissociation constant Kd at hSSTR-4 was greater than 1000 nM; on hSSTR-1, greater than 1000 nM; at hSSTR-3, 830 ± 86 nM; on hSSTR-2, 13.2 ± 3.85 nM.
With `C[C@@H](O)[C@H](NC(=O)[C@@H]1CSSC[C@H](NC(=O)[C@@H](N)Cc2ccc(O)cc2)C(=O)N[C@@H](Cc2ccccc2)C(=O)N[C@H](Cc2c[nH]c3ccccc23)C(=O)N[C@@H](CCCCN)C(=O)N[C@@H]([C@@H](C)O)C(=O)N1)C(N)=O` [Example 18, Tyr-cyclo(Cys-Phe-DTrp-Lys-Thr-Cys)-Thr-NH2] (H-YCF[dW]KTCT-NH2; disulfide 2-7; N-terminus assumed), the dissociation constant Kd at hSSTR-1 stood at 1000 nM; at hSSTR-3, 18.2 ± 4.21 nM; on hSSTR-2, 10.3 ± 3.53 nM.
`C[C@@H](O)[C@H](NC(=O)[C@@H]1CSSC[C@H](N(C)C(=O)[C@@H](N)Cc2ccc(O)cc2)C(=O)N[C@@H](Cc2ccccc2)C(=O)N[C@H](Cc2c[nH]c3ccccc23)C(=O)N[C@@H](CCCCN)C(=O)N[C@@H]([C@@H](C)O)C(=O)N1)C(N)=O` [Example 11, Tyr-cyclo(NMeCys-Phe-DTrp-Lys-Thr-Cys)-Thr-NH2] (H-Y[NMeC]F[dW]KTCT-NH2; disulfide 2-7; N-terminus assumed): the Kd was determined as 2.73 ± 2.43 nM on hSSTR-3, 8.96 ± 1.66 nM at hSSTR-2 and 114 nM on hSSTR-5.
As for `C[C@@H](O)[C@@H]1NC(=O)[C@H](CCCCN)NC(=O)[C@@H](Cc2c[nH]c3ccccc23)NC(=O)[C@H](Cc2ccccc2)NC(=O)[C@@H](NC(=O)[C@@H](N)Cc2ccc(O)cc2)CSSC[C@@H](C(=O)N(C)[C@H](C(N)=O)[C@@H](C)O)NC1=O` [Example 17, Tyr-cyclo(Cys-Phe-DTrp-Lys-Thr-Cys)-NMeThr-NH2] (H-YCF[dW]KTC[NMeT]-NH2; disulfide 2-7; N-terminus assumed), the equilibrium dissociation constant (Kd) at hSSTR-4 turned out to be 353 nM; at hSSTR-1, 611 ± 3.5 nM; on hSSTR-3, 535 ± 200 nM; at hSSTR-2 it was 26.2 ± 10.3 nM.
With `C[C@@H](O)[C@H](NC(=O)[C@@H]1CSSC[C@H](NC(=O)[C@@H](N)Cc2ccc(O)cc2)C(=O)N[C@@H](Cc2ccccc2)C(=O)N[C@H](Cc2c[nH]c3ccccc23)C(=O)N(C)[C@@H](CCCCN)C(=O)N[C@@H]([C@@H](C)O)C(=O)N1)C(N)=O` [Example 14, Tyr-cyclo(Cys-Phe-DTrp-NMeLys-Thr-Cys)-Thr-NH2] (H-YCF[dW][NMeK]TCT-NH2; disulfide 2-7; N-terminus assumed), the results for the dissociation constant Kd at hSSTR-1, on hSSTR-3 and on hSSTR-2 were 956 ± 43 nM, 51 ± 6.93 nM and 14.2 ± 3.12 nM, respectively.
As to `C[C@@H](O)[C@H](NC(=O)[C@@H]1CSSC[C@H](NC(=O)[C@@H](N)Cc2ccc(O)cc2)C(=O)N[C@@H](Cc2ccccc2)C(=O)N(C)[C@H](Cc2c[nH]c3ccccc23)C(=O)N[C@@H](CCCCN)C(=O)N[C@@H]([C@@H](C)O)C(=O)N1)C(N)=O` [Example 13, Tyr-cyclo(Cys-Phe-NMeDTrp-Lys-Thr-Cys)-Thr-NH2] (H-YCF[dNMeW]KTCT-NH2; disulfide 2-7; N-terminus assumed), the equilibrium dissociation constant (Kd) at hSSTR-1 is 1000 nM; at hSSTR-2 it was 120 ± 22.2 nM.
On to `C[C@@H](O)[C@H](NC(=O)[C@@H]1CSSC[C@H](NC(=O)[C@@H](N)Cc2ccc(O)cc2)C(=O)N[C@@H](Cc2ccccc2)C(=O)N[C@H](Cc2c[nH]c3ccccc23)C(=O)N[C@@H](CCCCN)C(=O)N[C@@H]([C@@H](C)O)C(=O)N1C)C(N)=O` [Example 16, Tyr-cyclo(Cys-Phe-DTrp-Lys-Thr-NMeCys)-Thr-NH2] (H-YCF[dW]KT[NMeC]T-NH2; disulfide 2-7; N-terminus assumed), for which the dissociation constant Kd came out at 321 nM on hSSTR-4 and 1260 nM at hSSTR-1.
For `C[C@@H](O)[C@H](NC(=O)[C@@H]1CSSC[C@H](NC(=O)[C@H](N)Cc2ccccc2)C(=O)N[C@@H](Cc2ccccc2)C(=O)N[C@H](Cc2c[nH]c3ccccc23)C(=O)N[C@@H](CCCCN)C(=O)N[C@@H]([C@@H](C)O)C(=O)N1)C(N)=O` [Example 9, DPhe-cyclo(Cys-Phe-DTrp-Lys-Thr-Cys)-Thr-NH2], the dissociation constant (Kd) was greater than 1000 nM on hSSTR-4, 761 nM on hSSTR-1, 11.8 ± 0.9 nM at hSSTR-3 and 0.15 ± 0.08 nM at hSSTR-2.
Consider `CN[C@@H](Cc1ccc(O)cc1)C(=O)N[C@H]1CSSC[C@@H](C(=O)N[C@H](C(N)=O)[C@@H](C)O)NC(=O)[C@H]([C@@H](C)O)NC(=O)[C@H](CCCCN)NC(=O)[C@@H](Cc2c[nH]c3ccccc23)NC(=O)[C@H](Cc2ccccc2)NC1=O` [Example 10, NMeTyr-cyclo(Cys-Phe-DTrp-Lys-Thr-Cys)-Thr-NH2] (H-[NMeY]CF[dW]KTCT-NH2; disulfide 2-7; N-terminus assumed), for which the dissociation constant (Kd) at hSSTR-1 was found to be 811 ± 188 nM; on hSSTR-2, 9.74 ± 1.87 nM.
